Source: patent US11826402B2, “Combination therapy involving antibodies against claudin 18.2 for treatment of metastatic pancreatic adenocarcinoma” (Astellas Pharma Inc., priority 2013, dated 2023)

Experiments:
[1] = test system: MiaPaCa2; experiment: IMAB362-mediated CDC assay (healthy human serum pool); type: cell-based
Protocol: (§1) In addition, the LVT cell lines and the parental strains were tested in CDC.
(§2) CHO-K1 cells stably transfected with CLDN18.2 (p740) and luciferase were used as assay positive controls in each assay (FIG. 23A). […] This is most likely due to the fact that neoplastic cells over-express one or more membrane bound complement inhibitory proteins (e.g. CD46, CD55 and CD59) (Geis et al., Curr Cancer Drug Targets, 2010 10:922-931). However, if expression of these inhibitory proteins on tumor cells affect clinical outcome of an antibody therapy is still contradictory (Dzietczenia et al. Med. Oncol. 2010, 27:743-6; Weng and Levy at al., Blood 2001 98:1352-7). In addition to the endogenous cell lines, all the LVT cell lines were tested in CDC assays.

[2] = test system: Patu8902; experiment: as above; type: cell-based
Protocol: as §1, §2

IMAB362: chimeric IgG1 antibody directed against CLDN18.2, developed by Ganymed Pharmaceuticals AG
n.m.: CDC EC50 [1] | CDC Max. lysis [1] | CDC EC50 [2] | CDC Max. lysis [2]
